We go through 19 compounds from patent US20240208994A1, “PLASMA KALLIKREIN INHIBITORS” (Merck Sharp & Dohme LLC, priority 2021, published 2024).

Assay [1] deals with T1, Human plasma kallikrein (Homo sapiens, UniProt P03952).
T1 construct: yields a heavy chain (371 amino acids) and a light chain (248 amino acids); purchased Enzyme Research Laboratories
The experiment in a line: Plasma Kallikrein Assay. Format: biochemical. The settings on record: purified Human plasma kallikrein 0.5 nM, substrate Acetyl-K-P-R-AFC, HEPES pH 7.4, fluorescence 405 Ex/510 Em; read-out: PKal IC50. As to the method: (§1) The effectiveness of a compound of the present invention as an inhibitor of plasma kallikrein can be determined using a relevant purified serine protease, and an appropriate synthetic substrate. The rate of hydrolysis of the chromogenic or fluorogenic substrate by the relevant serine protease was measured both in the absence and presence of compounds of the present invention. Assays were conducted at rt or at 37° C. […] A decrease in the rate of fluorescence change in the presence of inhibitor is indicative of enzyme inhibition. Such methods are known to one skilled in the art. The results of this assay are expressed as the half-maximal inhibitory concentrations (IC50), or the inhibitory constant, Ki.
Plasma kallikrein determinations were made in 50 mM HEPES buffer at pH 7.4 containing 150 mM NaCl, 5 mM CaCl2), and 0.1% PEG 8000 (polyethylene glycol: Fisher Scientific). Determinations were made using purified Human plasma kallikrein at a final concentration of 0.5 nM (Enzyme Research Laboratories) and the synthetic substrate, Acetyl-K-P-R-AFC (Sigma #C6608) at a concentration of […].
Activity assays were performed by diluting a stock solution of substrate at least tenfold to a final concentration ≤0.2 Km into a solution containing enzyme or enzyme equilibrated with inhibitor. Times required to achieve equilibration between enzyme and inhibitor were determined in control experiments. The reactions were performed under linear progress curve conditions and fluorescence increase measured at 405 Ex/510 Em nm. Values were converted to percent inhibition of the control reaction (after subtracting 100% Inhibition value). IC50 was determined by inflection point from a four parameter logistic curve fit. Ki was calculated using the Cheng Prusoff equation, Ki=IC50/(1+([S]/Km)).

For assay [2], the target named is human factor XIa (Homo sapiens, UniProt P03951). The experiment in a line: Factor XIa Assay. Format: biochemical. The following applies: human factor XIa 0.04 nM, 30 min pre-incubation at 25° C., substrate GPR-AFC, pH 7.4, 60 min incubation; read-out: FXIa IC50. As to the method: as §1, with “Coagulation factor XIa” for “plasma kallikrein”
Compounds were pre-incubated for 30 min at 25° C. with human (0.04 nM) factor XIa in 50 mM HEPES buffer with 150 mM sodium chloride, 5 mM calcium chloride, 0.1% PEG 8000, pH 7.4. factor XIa enzymatic activity was determined by addition of the substrate glycine-proline-arginine-7-amido-4-trifluoromethylcoumarin (GPR-AFC) and measurement of the fluorescence at 400/505 nm after a 60 min incubation at 25° C. The % inhibition for each data point was calculated from the data and analyzed using the log (inhibitor) vs. response four parameters equation to determine the half-maximal inhibitory concentrations (IC50). The IC50 were converted to equilibrium inhibitory constants (Ki) using the Cheng-Prusoff equation.

Molecules are shown by their SMILES. pIC50: −log10 of the molar value.

Chain of human factor XIa (P03951 388-625 limits assumed): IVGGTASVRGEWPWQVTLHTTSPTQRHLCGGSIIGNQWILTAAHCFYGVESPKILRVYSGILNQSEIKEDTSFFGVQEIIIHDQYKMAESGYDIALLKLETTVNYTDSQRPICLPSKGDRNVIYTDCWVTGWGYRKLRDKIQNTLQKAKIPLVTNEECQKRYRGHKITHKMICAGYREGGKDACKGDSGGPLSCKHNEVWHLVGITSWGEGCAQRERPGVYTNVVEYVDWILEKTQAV
Chain of human factor XIa (P03951 19-387 partner limits assumed): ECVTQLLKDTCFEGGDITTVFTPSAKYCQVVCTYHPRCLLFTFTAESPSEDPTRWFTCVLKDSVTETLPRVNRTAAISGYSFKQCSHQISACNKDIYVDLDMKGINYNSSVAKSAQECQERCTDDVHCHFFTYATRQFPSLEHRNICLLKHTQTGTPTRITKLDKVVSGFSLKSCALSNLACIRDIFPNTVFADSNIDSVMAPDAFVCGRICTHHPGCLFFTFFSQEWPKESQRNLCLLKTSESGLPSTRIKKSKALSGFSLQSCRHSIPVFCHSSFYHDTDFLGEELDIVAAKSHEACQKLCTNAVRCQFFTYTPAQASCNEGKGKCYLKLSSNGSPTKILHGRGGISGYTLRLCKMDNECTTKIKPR
T1 sequence (P03952 391-638 limits assumed): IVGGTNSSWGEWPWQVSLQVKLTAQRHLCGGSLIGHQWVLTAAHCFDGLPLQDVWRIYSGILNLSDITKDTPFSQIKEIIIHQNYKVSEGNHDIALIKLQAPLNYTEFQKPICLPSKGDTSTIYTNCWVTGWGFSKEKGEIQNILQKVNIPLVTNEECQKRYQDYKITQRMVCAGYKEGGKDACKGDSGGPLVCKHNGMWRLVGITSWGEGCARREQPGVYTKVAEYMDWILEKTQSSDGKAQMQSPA
T1 sequence (P03952 20-390 partner limits assumed): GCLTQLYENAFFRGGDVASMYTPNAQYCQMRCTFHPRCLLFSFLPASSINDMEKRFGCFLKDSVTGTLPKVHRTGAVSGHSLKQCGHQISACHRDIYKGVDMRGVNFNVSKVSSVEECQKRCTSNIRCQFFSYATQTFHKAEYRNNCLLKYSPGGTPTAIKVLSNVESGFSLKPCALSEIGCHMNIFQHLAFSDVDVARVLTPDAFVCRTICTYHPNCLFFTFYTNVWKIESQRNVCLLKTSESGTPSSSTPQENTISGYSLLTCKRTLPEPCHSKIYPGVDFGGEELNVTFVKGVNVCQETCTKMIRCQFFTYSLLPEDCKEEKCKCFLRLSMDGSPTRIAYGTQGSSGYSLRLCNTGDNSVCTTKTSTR

In the case of `N#Cc1cccc(-c2cc(N)n(CC(=O)N3CC[C@@]4(C3)OC(=O)Nc3ccc(Cl)c(F)c34)n2)c1` [Example 67, (R)-3-(5-Amino-1-(2-(6-chloro-5-fluoro-2-oxo-1,2-dihydrospiro[benzo[d] [1,3]oxazine-4,3'-pyrrolidin]-1'-y1)-2-oxoethyl)-1H-pyrazol-3-y1)benzonitrile], the negative logarithm of the IC50 (pIC50) was 7.92 in assay [1] and 6.36 in assay [2].
The corresponding values for `Nc1cc(-c2ccc3c(c2)OCO3)nn1CC(=O)N1CC[C@@]2(C1)OC(=O)Nc1ccc(Cl)c(F)c12` [Example 2, (R)-1′-(2-(5-Amino-3-(benzo[d][1,3]dioxol-5-y1)-1H-pyrazol-1-yl)acetyl)-6-chloro-5-fluorospiro[benzo[d][1,3]oxazine-4,3′-pyrrolidin]-2(1H)-one] are 8.10 and 6.19.
With `Nc1cc(-c2ncc(F)cc2F)nn1CC(=O)N1CCC[C@@]2(C1)OC(=O)Nc1ccc(Cl)c(F)c12` [Example 32, (R)-1′-(2-(5-Amino-3-(3,5-difluoropyridin-2-y1)-1H-pyrazol-1-yl)acetyl)-6-chloro-5-fluorospiro[benzo [d][1,3]oxazine-4,3′-piperidin]-2(1H)-one], the results for the pIC50 in assay [1] and in assay [2] were 8.24 and 6.19, respectively.
For `Nc1c(Cl)c(-c2ccc(F)cc2F)nn1CC(=O)N1CC[C@@]2(C1)OC(=O)Nc1ccc(Cl)c(F)c12` [Example 19, (R)-1′-(2-(5-Amino-4-chloro-3-(2,4-difluorophenyl)-1H-pyrazol-1-yl)acetyl)-6-chloro-5-fluorospiro[benzo[d][1.3]oxazine-4,3′-pyrrolidin]-2(1H)-one 2,2,2-trifluoroacetate], the negative logarithm of the IC50 (pIC50) in assay [1] was 7.52; in assay [2] it was 6.87.
Turning to `COc1ccc(-c2cc(N)n(CC(=O)N3CC[C@@]4(C3)OC(=O)Nc3ccc(Cl)c(F)c34)n2)cc1` [Example 6, (R)-1′-(2-(5-Amino-3-(4-methoxyphenyl)-1H-pyrazol-1-yl)acetyl)-6-chloro-5-fluorospiro[benzo[d][1,3]oxazine-4,3′-pyrrolidin]-2(1H)-one], the negative-log IC50 (pIC50) was 8.00 in assay [1] and 6.04 in assay [2].
Regarding `Nc1cc(-c2cncc(Br)c2)nn1CC(=O)N1CC[C@@]2(C1)OC(=O)Nc1ccc(Cl)c(F)c12` [Example 44, (R)-1′-(2-(5-Amino-3-(5-bromopyridin-3-y1)-1H-pyrazol-1-yl)acetyl)-6-chloro-5-fluorospiro[benzo[d][1,3]oxazine-4,3'-pyrrolidin]-2(1H)-one], the pIC50 in assay [1] is 7.95; in assay [2], 6.41.
For `Nc1cc(-c2ccccc2Br)nn1CC(=O)N1CC[C@@]2(C1)OC(=O)Nc1ccc(Cl)c(F)c12` [Example 57, (R)-1′-(2-(5-Amino-3-(2-bromophenyl)-1H-pyrazol-1-yl)acetyl)-6-chloro-5-fluorospiro[benzo[d][1,3]oxazine-4,3′-pyrrolidin]-2(1H)-one], the results for the pIC50 in assay [1] and in assay [2] were 8.60 and 6.72, respectively.
The corresponding values for `Nc1cc(-c2cccs2)nn1CC(=O)N1CC[C@@]2(C1)OC(=O)Nc1ccc(Cl)c(F)c12` [Example 39, (R)-1′-(2-(5-Amino-3-(thiophen-2-y1)-1H-pyrazol-1-yl)acetyl)-6-chloro-5-fluorospiro[benzo[d] [1,3]oxazine-4,3′-pyrrolidin]-2(1H)-one] are 7.89 and 6.60.
The corresponding values for `Cc1ccc(-c2cc(N)n(CC(=O)N3CC[C@@]4(C3)OC(=O)Nc3ccc(Cl)c(F)c34)n2)n1C` [Example 45, (R)-1′-(2-(5-Amino-3-(1,5-dimethyl-1H-pyrrol-2-y1)-1H-pyrazol-1-yl)acetyl)-6-chloro-5-fluorospiro[benzo[d][1,3]oxazine-4,3′-pyrrolidin]-2(1H)-one] are 7.39 and 5.56.
Taken in the same sequence, the figures for `Nc1c(Cl)c(-c2ccccc2)nn1CC(=O)N1CC[C@@]2(C1)OC(=O)Nc1ccc(Cl)c(F)c12` [Example 20, (R)-1′-(2-(5-Amino-4-chloro-3-phenyl-1H-pyrazol-1-yl)acetyl)-6-chloro-5-fluorospiro[benzo[d][1,3]oxazine-4,3′-pyrrolidin]-2(1H)-one] were 7.37 and 6.67.
With `Cc1cccc(-c2cc(N)n(CC(=O)N3CC[C@@]4(C3)OC(=O)Nc3ccc(Cl)c(F)c34)n2)c1` [Example 42, (R)-1′-(2-(5-Amino-3-(m-toly1)-1H-pyrazol-1-yl)acetyl)-6-chloro-5-fluorospiro[benzo[d][1,3]oxazine-4,3′-pyrrolidin]-2(1H)-one], the negative logarithm of the IC50 (pIC50) in assay [1] is 7.82; in assay [2] it was 6.21.
In the case of `Nc1c(Cl)c(-c2ncccc2F)nn1CC(=O)N1CCC[C@@]2(C1)OC(=O)Nc1ccc(Cl)c(F)c12` [Example 34, (R)-1′-(2-(5-Amino-4-chloro-3-(3-fluoropyridin-2-y1)-1H-pyrazol-1-yl)acetyl)-6-chloro-5-fluorospiro[benzo[d][1,3]oxazine-4,3′-piperidin]-2(1H)-one], the results for the negative-log IC50 (pIC50) in assay [1] and in assay [2] were 8.05 and 6.75, respectively.
Taken in the same sequence, the figures for `Nc1c(Cl)c(-c2ccccc2)nn1CC(=O)N1CCC[C@@]2(C1)OC(=O)Nc1ccc(Cl)c(F)c12` [Example 22, (R)-1′-(2-(5-Amino-4-chloro-3-phenyl-1H-pyrazol-1-yl)acetyl)-6-chloro-5-fluorospiro[benzo[d][1,3]oxazine-4,3′-piperidin]-2(1H)-one] were 7.58 and 6.29.
Taken in the same sequence, the figures for `Nc1c2c(nn1CC(=O)N1CCC[C@@]3(C1)OC(=O)Nc1ccc(Cl)c(F)c13)CCCC2` [Example 26, (R)-1′-(2-(3-Amino-4,5,6,7-tetrahydro-2H-indazol-2-yl)acetyl)-6-chloro-5-fluorospiro[benzo[d][1,3]oxazine-4,3′-piperidin]-2(1H)-one] were 7.65 and 6.32.
As to `Nc1cc(C2CCCCC2)nn1CC(=O)N1CC[C@@]2(C1)OC(=O)Nc1ccc(Cl)c(F)c12` [Example 52, (R)-1′-(2-(5-Amino-3-cyclohexy1-1H-pyrazol-1-yl)acetyl)-6-chloro-5-fluorospiro[benzo[d][1,3]oxazine-4,3′-pyrrolidin]-2(1H)-one], the values for the negative logarithm of the IC50 (pIC50) in assay [1] and in assay [2] were 7.68 and 6.37, respectively.
Take `COc1ccccc1-c1cc(N)n(CC(=O)N2CC[C@@]3(C2)OC(=O)Nc2ccc(Cl)c(F)c23)n1` [Example 62, (R)-1′-(2-(5-Amino-3-(2-methoxyphenyl)-1H-pyrazol-1-yl)acetyl)-6-chloro-5-fluorospiro[benzo[d][1,3]oxazine-4,3′-pyrrolidin]-2(1H)-one]: the negative logarithm of the IC50 (pIC50) was 8.18 in assay [1] and 6.30 in assay [2].
On to `Nc1cc(-c2ccccc2I)nn1CC(=O)N1CC[C@@]2(C1)OC(=O)Nc1ccc(Cl)c(F)c12` [Example 58, (R)-1′-(2-(5-Amino-3-(2-iodophenyl)-1H-pyrazol-1-yl)acetyl)-6-chloro-5-fluorospiro[benzo[d][1,3]oxazine-4,3′-pyrrolidin]-2(1H)-one], for which the negative-log IC50 (pIC50) in assay [1] is 8.24; in assay [2], 6.37.
The corresponding values for `Nc1cc(-c2ncc(F)cc2F)nn1CC(=O)N1CC[C@@]2(C1)OC(=O)Nc1ccc(Cl)c(F)c12` [Example 27, (R)-1′-(2-(5-Amino-3-(3,5-difluoropyridin-2-yl)-1H-pyrazol-1-yl)acetyl)-6-chloro-5-fluorospiro[benzo[d][1,3]oxazine-4,3′-pyrrolidin]-2(1H)-one] are 7.60 and 6.37.
Turning to `Nc1cc(-c2cccnc2)nn1CC(=O)N1CC[C@@]2(C1)OC(=O)Nc1ccc(Cl)c(F)c12` [Example 9, (R)-1′-(2-(5-Amino-3-(pyridin-3-yl)-1H-pyrazol-1-yl)acetyl)-6-chloro-5-fluorospiro[benzo[d][1,3]oxazine-4,3′-pyrrolidin]-2(1H)-one], the results for the negative-log IC50 (pIC50) in assay [1] and in assay [2] were 7.89 and 6.41, respectively.
